Experiments:
[1] = tested on: acetaldehyde from saliva; experiment: Elimination of acetaldehyde from saliva during smoking by a cysteine lozenge (FIG. 3); format: in vivo, human; conditions: lozenge containing 5 mg
[2] = tested on: acetaldehyde in the saliva; experiment: Salivary acetaldehyde during smoking while sucking L-cysteine tablets (gas chromatography of saliva samples); format: in vivo, human; conditions: for average salivary acetaldehyde contents immediately after smoking: five smokers, one cigarette in 5 minutes, placebo 191.2±48.5 μM
Method: Five smokers (of the age of 29±2.8) participated in a study, in which […] were smoked (with cleaning periods in between). While smoking each cigarette (in 5 minutes time), the voluntaries sucked tablets blindfold, containing a placebo, 1.25 mg, 2.5 mg, 5 mg, 10 mg or 20 mg of L-cysteine. The acetaldehyde in the saliva samples was analysed by gas chromatography after 0, 5, 10, 20 minutes from starting to smoke.

Row | SMILES | elimination of acetaldehyde from saliva during smoking [1] | average salivary acetaldehyde contents immediately after smoking ([2]; 5 mg L-cysteine sucking tablet) | inactivation of acetaldehyde in the saliva during smoking ([2]; 5 mg of L-cysteine delivered with a melting tablet) | average salivary acetaldehyde contents immediately after smoking ([2]; 10 mg L-cysteine sucking tablet) | average salivary acetaldehyde contents immediately after smoking ([2]; 20 mg L-cysteine sucking tablet) | reduction of the amount of acetaldehyde compared with the placebo ([2]; L-cysteine tablet of 1.25 mg, saliva, during smoking) | removal of acetaldehyde originating from tobacco from the saliva ([2]; L-cysteine tablets 5 mg, 10 and 20 mg, during smoking, FIG. 1)
1 | N[C@H](CS)C(=O)O [D-cysteine] | totally eliminates acetaldehyde | – | – | – | – | – | –
2 | N[C@@H](CS)C(=O)O [L-cysteine] | totally eliminates acetaldehyde | 0 µM | completely inactivated | 0 µM | 0 µM | about two thirds | removed from the saliva all of the acetaldehyde
